{"source": "a melting point compilation (Tetko et al.; mined from patent text by program, amines drawn as free bases though some values may be those of a salt)"}
{"units": {"melting point": "°C"}}
{"smiles": "CCC(=O)N1CCC(CC(=O)N2CCC([C@H]3c4ncc(Br)cc4CCc4cc(Cl)cc(Br)c43)CC2)CC1", "melting point": 124}
{"smiles": "CCOC(=O)CS(=O)(=O)CCC=C1SC=CS1", "melting point": "103 to 104"}
{"smiles": "COc1cccc(Cl)c1-c1cc2c(c3c1C(=O)NC3=O)c1cc(O)ccc1n2CCN1CCOCC1", "melting point": 185}
{"smiles": "CC1(CNC(=O)CCl)OCCO1", "melting point": "128 to 130"}
{"smiles": "CC1(n2ncc(-c3ccc(S(C)(=O)=O)cc3)c(-c3ccc(F)cc3)c2=O)CCCC1", "melting point": "107 to 110"}
{"smiles": "CC(C)Cn1c(CNC(=O)OC(C)(C)C)c(-c2ccccc2)c2cc(OCc3ccccc3)ccc2c1=O", "melting point": "141 to 142"}
{"smiles": "O=C1N(c2cc(Cl)nc(Cl)c2)C(=O)[C@]2(Cc3ccc(OC(F)(F)F)cc3)C[C@@H](c3cc[nH]c3C(=O)C(F)(F)F)CN12", "melting point": 167}
{"smiles": "FC(F)(F)Oc1ccc(Cn2cnc3c(-c4ccco4)ncnc32)cc1", "melting point": "146 to 147"}
{"smiles": "CC(C)(C)c1ccc(C[C@@H](NC(=O)c2cccc3c2C=CCCC3)[C@@H](O)c2ccc(F)cc2)cc1", "note": "(racemic)", "melting point": "140 to 142"}
{"smiles": "Cc1c(C(=O)N(CC(=O)O)c2ccc(OCC(C)(C)C)c(C#N)c2)cnn1-c1ccc(F)cc1", "melting point": "105 to 110"}
{"smiles": "CC(c1oc2ccccc2c(=O)c1-c1cccc(F)c1)n1nc(-c2csc3ccccc23)c2c(N)ncnc21", "note": "(centres undefined)", "melting point": "226 to 229"}
{"smiles": "COC(=O)c1ccc(Cl)c(C2(O)C(=O)N(Cc3ccc(OC)cc3OC)c3ccc(Cl)cc32)c1", "note": "(centres undefined)", "melting point": 56}
{"smiles": "Cc1nnc2n1-c1sc(C#Cc3ccccc3)cc1C(c1ccccc1Cl)=NC2", "melting point": "215 to 217"}
{"smiles": "C[C@@H](NC(=O)c1cnn(-c2ccc(C(F)(F)F)cc2)c1N)[C@](O)(Cn1cncn1)c1ccc(F)cc1F", "melting point": "208 to 210"}
{"smiles": "COC(=O)c1cc(C(C)=O)ccc1OCCCC(=O)O", "melting point": "111 to 113"}
{"smiles": "COC(=O)c1cc(CS(=O)(=O)c2ccccc2)cnc1C1=NC(C)(C(C)C)C(=O)N1C(=O)c1ccccc1", "note": "(centres undefined)", "melting point": "162 to 166"}
{"smiles": "Oc1ccc(CCNC[C@H](O)COc2ccccc2)cc1", "melting point": "118 to 119"}
{"smiles": "CCCc1ccc(S(=O)(=O)n2c(CCC(=O)OC)cc3cc(Cl)ccc32)cc1", "melting point": "85 to 88"}
{"smiles": "COc1ccc(S(=O)(=O)Nc2cccnc2Nc2ccccc2)cc1", "melting point": "172 to 173"}
{"smiles": "CN(C)Cc1cnc2n1-c1ccc(Cl)cc1C(c1ccccc1)=NC2", "melting point": "181 to 182"}
{"smiles": "CC(C)n1c(=O)nc(-c2cccnc2)c2cc3c(cc21)OCO3", "melting point": "58 to 60"}
{"smiles": "COc1ccc(CNc2nc(Cl)nc(Cl)c2C(=O)O)cc1Cl", "melting point": "150 to 151"}
{"smiles": "COc1ccc(C#N)cc1C(=O)NCCN1CCC(=C(O)c2ccc(F)cc2)CC1", "melting point": "135 to 137"}
{"smiles": "CC(C(=O)CO)c1ccc(-c2ccccc2)c(F)c1", "note": "(centres undefined)", "melting point": "63 to 64.5"}
{"smiles": "CCOC(=O)c1ccc(Br)c(OC(F)F)c1Br", "melting point": "45 to 47"}
{"smiles": "C=CCCC1(C(F)(F)F)OC(=O)Nc2ccc(Cl)cc21", "note": "(racemic)", "melting point": "165 to 166"}
{"smiles": "COc1ccccc1N1CCN(CCc2ccc(OC(=O)C(C)(C)C)c3ncccc23)CC1", "melting point": 115}
{"smiles": "C#CCNC(=O)c1nn(-c2c(Cl)cc(C(F)(F)F)cc2Cl)c(N)c1S(=O)C(F)(F)F", "note": "(centres undefined)", "melting point": 207}
{"smiles": "CCOC(=O)C(C)(Cc1cccnc1)S(=O)(=O)c1ccc(OC)cc1", "note": "(centres undefined)", "melting point": 58}
{"smiles": "CCNC(=O)COC1CCN(Cc2cnc3cc(NC(=O)c4ccc(-c5ccc(F)cc5)cc4)ccc3c2)CC1", "melting point": "228 to 230"}
{"smiles": "COc1ccc(S(=O)(=O)Nc2cccc3cn[nH]c23)cc1", "melting point": "155 to 156"}
{"smiles": "O=C(Nc1ccc(OC(F)(F)F)cc1)NC1CCN(C(=O)CN2CCN(Cc3ccccc3)CC2)CC1", "melting point": "178 to 183"}
{"smiles": "CC(=O)NC[C@H]1CN(c2cc(F)c(N3CCC(n4nnc(N5CCOCC5)n4)CC3)c(F)c2)C(=O)O1", "melting point": "232 to 234"}
{"smiles": "COc1ccc(N2CCN(c3c(C)c(C)c4c(c3C)C(N3CCc5ccccc5C3)C(C)(C)O4)CC2)cc1", "note": "(centres undefined)", "melting point": "144 to 145"}
{"smiles": "CCOC(=O)Cn1c(C)cnc(NCC(F)(F)c2ccccc2)c1=O", "melting point": "106 to 110"}
{"smiles": "Cc1ccccc1Cc1ccc(C(=O)O)o1", "melting point": "136 to 138"}
{"smiles": "CCCc1nn(-c2ccc(C(F)(F)F)cn2)cc1CCCO", "melting point": "96 to 97"}
{"smiles": "Cc1cc(=O)[nH]c2c1C(=O)CCC2", "melting point": "96 to 97"}
{"smiles": "C=C(c1nc2ccccc2s1)C1CCN(CCc2ccc(OC)cc2)CC1", "melting point": "84 to 85"}
{"smiles": "Oc1ccc(CCN(Cc2ccccc2)CC(O)COc2ccccc2)cc1", "note": "(centres undefined)", "melting point": "103 to 105"}
{"smiles": "COC(=O)C(C)(COS(C)(=O)=O)C(=O)c1ccc(Cl)cc1", "note": "(centres undefined)", "melting point": "85 to 86"}
{"smiles": "O=c1oc(-c2cccc(C(F)(F)F)c2)nc2ccc(F)cc12", "melting point": "118 to 119"}
{"smiles": "CN1Cc2c(C(N)=O)ncn2-c2ccsc2C1=O", "melting point": "294 to 296"}
{"smiles": "O=S(=O)(Nc1cccc(CCOCc2csc(-c3ccc(Cl)cc3)n2)c1)C(F)(F)F", "melting point": "114 to 116"}
{"smiles": "COc1ccc(CN(C)CCCc2ccc(NC(=O)c3cccc4c(=O)c5cccc([N+](=O)[O-])c5[nH]c34)cc2)cc1OC", "melting point": 192}
{"smiles": "COc1nc2cc(Cl)c(Cl)c(N)c2nc1OC", "melting point": "182 to 184"}
{"smiles": "COC(=O)C1=C(C)Nc2ccccc2SC1c1ccccc1", "note": "(centres undefined)", "melting point": "154 to 156"}
{"smiles": "Cc1ccccc1C(=O)c1ccc(CC(=O)O)n1C", "melting point": "133 to 135"}
{"smiles": "CCCC(CC(=O)Nc1cc(C(N)=O)ccc1C(C)(C)C)c1ccc(OC)cc1OC", "note": "(centres undefined)", "melting point": 192}
{"smiles": "CC(C)(N)c1ccc(-c2nc(Nc3ccc(CCn4ccnc4)cc3)ncc2Cl)cc1F", "melting point": "112 to 120"}
{"smiles": "N#Cc1cc(F)c(F)cc1[N+](=O)[O-]", "melting point": 75}
{"smiles": "COc1nc2c(c(OC)n1)C(c1cc(OC)c(OC)c(OC)c1)C1=C(COC1=O)N2", "note": "(centres undefined)", "melting point": "299 to 300"}
{"smiles": "COc1ccc(C2Nc3ccc(Cl)cc3C(C#CC3CC3)(C(F)(F)F)O2)cc1", "note": "(centres undefined)", "melting point": "130 to 132"}
{"smiles": "FC(F)(F)c1ccc(-c2nccc(Oc3cccc(C(F)(F)F)c3)n2)cc1", "melting point": "66 to 67"}
{"smiles": "COc1cc2c(c(Cl)c1Cl)S(=O)(=O)C(c1ccccc1F)=C2", "melting point": "267 to 268"}
{"smiles": "CC(CCC(=O)O)C1CCC2C3C(O)CC4CC(NC(=O)CNC(=O)OC(C)(C)C)CCC4(C)C3CC(O)C12C", "note": "(centres undefined)", "melting point": "150 to 155"}
{"smiles": "C=Cc1cc(C(=O)OC)c(NC(C)=O)cc1C(F)(F)F", "melting point": "79 to 81"}
{"smiles": "CC(C)c1nn(-c2ccc(C(F)(F)F)cn2)cc1CCCOc1nn(C)cc1CCC(=O)O", "melting point": "124 to 125"}
{"smiles": "C[C@@H]1COC(=O)N1c1nc(-c2ccc(Br)cc2)cs1", "melting point": "189 to 190"}
{"smiles": "COc1ccn2nc(-c3ccccc3)c(-c3ccc(=O)n(C4CCCN(C)C4)n3)c2c1", "note": "(centres undefined)", "melting point": "179 to 180"}
{"smiles": "O=C1Cc2cc3cc(OCCCC(=O)N4CCN(CC5CCCCC5)CC4)ccc3nc2N1", "melting point": 212}
{"smiles": "COC(=O)C1=C(C)NC(C)=C(C(=O)OCOC(=O)C(C)(C)C)C1c1cccc(Cl)c1Cl", "note": "(single isomer, unassigned; (+))", "melting point": "154 to 155"}
{"smiles": "O=[N+]([O-])c1ccccc1CCN1CCN(c2ccccc2)CC1", "melting point": 76}
{"smiles": "COC(=O)n1nnnc1-c1cnc2ccccn2c1=O", "melting point": "182 to 183"}
{"smiles": "Nc1ccc2ccc(-c3ccc(Cl)cc3)nc2n1", "melting point": 130}
{"smiles": "Cc1nn(-c2cc(Oc3ccc(OC(C)C(=O)O)cn3)c(Cl)cc2F)c(=O)n1C(F)F", "note": "(centres undefined)", "melting point": "49 to 51"}
{"smiles": "Fc1cccc(F)c1COc1cccnc1NC(=S)Nc1ccccc1", "melting point": "132 to 133"}
{"smiles": "COc1cc2c(=O)oc(=O)[nH]c2c(OC)c1OC", "melting point": 247}
{"smiles": "COC(=O)c1cc(C)c(C)cc1C(=O)OC", "melting point": "54 to 55"}
{"smiles": "CCOC(=O)C(=Cc1cccn2cc(C(C)(C)C)nc12)N=[N+]=[N-]", "melting point": "108 to 110"}
{"smiles": "CC(C)c1csc(/C=C/c2cccc(NC(=O)Cc3ccccc3C(=O)O)c2)n1", "melting point": "203 to 204"}
{"smiles": "COC(=O)c1ccc2c(c1)-c1c(c(C(=O)C(C#N)C(=O)Nc3ccccc3)nn1-c1ccccc1)CS2", "note": "(centres undefined)", "melting point": "228 to 230"}
{"smiles": "Cc1ccc2sc(C(=O)O)cc(=O)c2c1", "melting point": "236 to 237"}
{"smiles": "CC(C)(C)OC(=O)n1ccc2cnccc21", "melting point": 65}
{"smiles": "CCC(=O)N1Cc2cc(OC)ccc2C(Cc2c(Cl)cncc2Cl)=N1", "melting point": "195 to 197"}
{"smiles": "COc1cc(OC)c2c(=O)[nH]c(-c3cc(C)c(OCCN4Cc5ccccc5C4)c(C)c3)nc2c1", "melting point": 202}
{"smiles": "COC(=O)C(Oc1ccc(Cl)cc1)c1ccc(Oc2ccc(Cl)cc2)cc1", "note": "(centres undefined)", "melting point": "100 to 102"}
{"smiles": "NC(=O)Nc1nc2n(n1)CCc1ccccc1-2", "melting point": "210 to 212"}
{"smiles": "CCCCCN1C(=O)C2(OCc3cc4c(cc32)OCO4)c2ccccc21", "note": "(centres undefined)", "melting point": "113 to 115"}
{"smiles": "O=[N+]([O-])c1cnn2c1NCCC2", "melting point": "251 to 252"}
{"smiles": "O=C1CCNN1c1ccc(Cl)cc1", "melting point": "120 to 122"}
{"smiles": "CCOC(=O)CCCOc1ccc(C2=NNC(=O)CC2)cc1Cl", "melting point": "109 to 110"}
{"smiles": "CC(=O)N1Cc2c(n(-c3cccc(Cl)c3)c3ncccc3c2=O)C1", "melting point": "170 to 173"}
{"smiles": "CCOC(=O)N1CC[C@H](NC(=O)c2cc([N+](=O)[O-])c(Cl)cc2OC)[C@H](OC)C1", "note": "(relative stereo)", "melting point": 181}
{"smiles": "COc1cc2c(cc1OC)C(C=Cc1ccc(N(C)C)cc1)=NN=C(C)C2", "melting point": "170 to 172"}
{"smiles": "COc1cc(NC(=O)CCN2CCCN(CCC(=O)Nc3cc(OC)c(OC)c(OC)c3)CC2)cc(OC)c1OC", "melting point": "135 to 137"}
{"smiles": "Cn1ncnc1COc1nn2c(-c3ccc(F)cc3F)nnc2cc1C1(C)CCCCC1", "melting point": 196}
{"smiles": "CC(Cc1cc(C(=O)c2ccccc2)ccc1OC(=O)C(C)(C)C)C(=O)O", "note": "(centres undefined)", "melting point": "119 to 120"}
{"smiles": "CN(C)CCOc1ccc(C=NCCN=Cc2ccc(OCCN(C)C)cc2O)c(O)c1", "melting point": "92 to 94"}
{"smiles": "CCc1cn(C2CC(O)C(CNC(=O)C(C)Oc3ccc(Cl)cc3Cl)O2)c(=O)[nH]c1=O", "note": "(mixture of isomers)", "melting point": "240 to 243"}
{"smiles": "CCNc1ccc(Cc2ccc(NCC)c3ccccc23)c2ccccc12", "melting point": "165 to 168"}
{"smiles": "CCOC(=O)c1ccc(N)cc1Br", "melting point": 93}
{"smiles": "Cn1ncc2[nH]c3ccc(Cc4ccccc4C(N)=O)cc3c(=O)c21", "melting point": 272}
{"smiles": "CCOC(=O)C1CCCCN1C(=O)c1ccc(Cl)c(C2(C)C(=O)N(Cc3ccc(OC)cc3OC)c3ccc(Cl)cc32)c1", "note": "(centres undefined)", "melting point": 113}
